Test results as given in patent US20100130597A1, “DNA-PKCS MODULATES ENERGY REGULATION AND BRAIN FUNCTION” (The United State of America, as represented by the …, priority 2007, published 2010).

Experiments:
[1] = tested on: AMPK; assay: AMPK activation in mouse embryonic fibroblasts (wild-type, DNA-PK null, LKB1-null); assay type: cell-based
From the text: The hypothesis that DNA-PKcs inhibition/deficiency induces activation of the LKB1-AMPK pathway was further tested using DNA-PK^−/− (null) mouse embryonic fibroblasts (MEFs) and LKB1-null MEFs treated with NU7026.

[2] = tested on: MCF7 cells; assay: Reactive oxygen species production in MCF7 cells (CM-H2DCFDA); assay type: cell-based; conditions: NU 7026 5 μM 12 h, DNP 200 μM 10 min, Troglitazone 30 μM 4 hr, Euk-134 5 μM 3 h, MnTBAP 14 μM 3 h, FIG. 4
From the text: Measurement of intracellular reactive oxygen species was based on changes in the fluorescence intensity of redox-sensitive fluorescent probes, including CM-H2DCFDA. CM-H2DCFDA is a probe for intracellular hydrogen peroxide (Jou M J et al. J. Biomed Sci 9:507 (2002)). CM-H2DCFDA rapidly diffuses into cells, reacts with intracellular glutathione and thiols, and yields a fluorescent product that is retained inside the cell (Shanker G et al. Mol Brain Res 128:48, 2004). The fluorescence intensity of CM-H2DCFDA is therefore indicative of the amount of intracellular H2O2.
Briefly, cells were incubated with 10 uM CM-H2DCFDA for 30 min at 37° C. The cells were then excited at the peak excitation wavelength for CM-H2DCFDA (485 nm) and emissions at 535 nm were measured with Wallac Victor multilable counter (Perkin Elmer). For glucose treatment, the total sugar content in the media was kept constant by supplementing with mannitol, which is not metabolized.
MCF-7 cells were obtained from ATCC and grown as recommended. Confluent MCF-7 cells were incubated with serum-free DMEM medium for 3-12 h before the experiment. MCF-7 cells were then treated with DNA-PK inhibitor NU 7026 (5 μM; Calbiochem) for 12 h, DNP (200 μM; Sigma) for 10 min, Troglitazone (30 μM) for 4 hr, Euk-134 (5 μM; Eukarion) for 3 h, MnTBAP (14 μM; Calbiochem) for 3 h and Resveratrol.

[3] = molecular target: ATM (Homo sapiens, UniProt Q13315); conditions: related kinase, selectivity; cited from earlier work
Chain of ATM (Q13315 whole entry, species assumed): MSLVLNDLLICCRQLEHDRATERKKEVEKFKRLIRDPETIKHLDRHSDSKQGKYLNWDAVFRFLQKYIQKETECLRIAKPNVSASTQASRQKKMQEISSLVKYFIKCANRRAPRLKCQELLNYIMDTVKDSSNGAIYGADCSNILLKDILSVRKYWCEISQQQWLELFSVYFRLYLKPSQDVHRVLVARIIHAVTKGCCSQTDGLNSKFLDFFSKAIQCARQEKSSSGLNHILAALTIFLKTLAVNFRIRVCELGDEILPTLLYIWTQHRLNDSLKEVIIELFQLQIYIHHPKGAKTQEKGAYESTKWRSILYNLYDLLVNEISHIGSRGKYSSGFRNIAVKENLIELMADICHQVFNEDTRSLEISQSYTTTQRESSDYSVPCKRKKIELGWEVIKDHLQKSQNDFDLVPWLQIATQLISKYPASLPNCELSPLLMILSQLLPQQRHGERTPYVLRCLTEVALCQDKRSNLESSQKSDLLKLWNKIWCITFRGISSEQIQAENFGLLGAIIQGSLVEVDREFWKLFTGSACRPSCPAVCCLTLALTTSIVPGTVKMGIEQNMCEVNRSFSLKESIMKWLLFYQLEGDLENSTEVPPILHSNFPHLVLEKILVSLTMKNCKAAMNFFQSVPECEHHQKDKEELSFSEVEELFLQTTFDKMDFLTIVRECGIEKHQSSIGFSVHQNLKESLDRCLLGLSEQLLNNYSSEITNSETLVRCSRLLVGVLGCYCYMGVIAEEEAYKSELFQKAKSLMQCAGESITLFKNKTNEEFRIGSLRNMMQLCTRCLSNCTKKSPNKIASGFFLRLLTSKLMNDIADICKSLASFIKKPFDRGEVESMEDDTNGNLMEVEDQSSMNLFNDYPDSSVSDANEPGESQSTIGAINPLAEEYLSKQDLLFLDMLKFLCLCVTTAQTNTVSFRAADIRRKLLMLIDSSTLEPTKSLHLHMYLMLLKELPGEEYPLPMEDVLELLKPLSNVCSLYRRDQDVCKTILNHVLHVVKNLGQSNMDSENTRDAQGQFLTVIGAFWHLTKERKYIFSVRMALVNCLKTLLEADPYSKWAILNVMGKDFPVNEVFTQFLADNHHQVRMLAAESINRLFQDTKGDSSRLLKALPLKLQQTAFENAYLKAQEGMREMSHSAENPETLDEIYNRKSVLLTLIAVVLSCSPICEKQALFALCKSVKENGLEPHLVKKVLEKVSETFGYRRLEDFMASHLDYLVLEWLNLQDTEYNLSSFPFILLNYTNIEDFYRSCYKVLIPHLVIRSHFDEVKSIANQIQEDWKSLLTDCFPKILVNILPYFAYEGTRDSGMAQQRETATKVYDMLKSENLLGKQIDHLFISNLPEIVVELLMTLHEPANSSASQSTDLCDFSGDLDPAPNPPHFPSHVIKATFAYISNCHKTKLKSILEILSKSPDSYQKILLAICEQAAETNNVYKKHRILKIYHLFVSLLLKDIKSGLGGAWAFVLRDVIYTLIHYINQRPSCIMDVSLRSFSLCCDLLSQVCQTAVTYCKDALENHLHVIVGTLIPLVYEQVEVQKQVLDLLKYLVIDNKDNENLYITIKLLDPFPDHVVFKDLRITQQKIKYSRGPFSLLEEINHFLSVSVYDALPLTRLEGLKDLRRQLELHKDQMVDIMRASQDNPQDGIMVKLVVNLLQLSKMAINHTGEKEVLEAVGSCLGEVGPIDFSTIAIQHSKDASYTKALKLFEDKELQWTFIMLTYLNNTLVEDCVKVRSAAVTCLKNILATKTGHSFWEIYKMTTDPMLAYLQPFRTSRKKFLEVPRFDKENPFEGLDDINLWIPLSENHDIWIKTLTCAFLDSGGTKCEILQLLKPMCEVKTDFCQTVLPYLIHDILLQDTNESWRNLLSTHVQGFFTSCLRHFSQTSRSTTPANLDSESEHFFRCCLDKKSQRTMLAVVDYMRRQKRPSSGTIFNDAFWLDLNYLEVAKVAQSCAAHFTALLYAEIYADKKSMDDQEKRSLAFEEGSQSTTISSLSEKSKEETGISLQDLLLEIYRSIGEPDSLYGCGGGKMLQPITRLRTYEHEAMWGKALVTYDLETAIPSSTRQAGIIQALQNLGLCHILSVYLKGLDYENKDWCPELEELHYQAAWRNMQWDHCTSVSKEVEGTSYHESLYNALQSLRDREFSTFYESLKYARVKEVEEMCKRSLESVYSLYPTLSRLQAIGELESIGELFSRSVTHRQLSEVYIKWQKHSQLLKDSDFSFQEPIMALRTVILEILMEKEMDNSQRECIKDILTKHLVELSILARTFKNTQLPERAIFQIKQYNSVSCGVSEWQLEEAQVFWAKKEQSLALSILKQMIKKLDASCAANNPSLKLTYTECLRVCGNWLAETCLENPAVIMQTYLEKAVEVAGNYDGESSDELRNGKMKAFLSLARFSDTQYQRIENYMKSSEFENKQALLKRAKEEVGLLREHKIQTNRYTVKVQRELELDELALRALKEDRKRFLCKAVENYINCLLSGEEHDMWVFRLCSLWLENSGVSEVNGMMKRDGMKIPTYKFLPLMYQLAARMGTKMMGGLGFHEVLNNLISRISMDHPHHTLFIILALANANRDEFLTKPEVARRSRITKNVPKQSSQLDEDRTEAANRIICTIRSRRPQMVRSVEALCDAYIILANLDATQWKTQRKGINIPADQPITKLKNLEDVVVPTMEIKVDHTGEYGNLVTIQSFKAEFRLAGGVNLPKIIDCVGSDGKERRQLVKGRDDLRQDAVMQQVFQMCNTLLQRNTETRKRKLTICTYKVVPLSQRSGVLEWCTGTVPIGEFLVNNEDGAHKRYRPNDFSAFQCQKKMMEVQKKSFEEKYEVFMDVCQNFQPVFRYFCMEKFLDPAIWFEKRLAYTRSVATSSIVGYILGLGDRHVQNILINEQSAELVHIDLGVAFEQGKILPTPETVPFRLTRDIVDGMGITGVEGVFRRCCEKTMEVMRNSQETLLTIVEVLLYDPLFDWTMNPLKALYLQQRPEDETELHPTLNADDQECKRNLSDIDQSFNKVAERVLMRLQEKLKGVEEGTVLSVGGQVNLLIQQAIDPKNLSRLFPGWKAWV

[4] = Elevated plus maze test; assay type: in vivo, mice
Method: To evaluate whether SCID mice may also have altered anxiety, fear and depression-like traits, an elevated plus maze test was performed, which is a commonly used test to quantify the level of anxiety- and depression-like traits in rodents (Pellow et al. J. Neurosci. Methods 14: 149-67 (1985)). The elevated plus maze has narrow runways that are located 16 inches above the surface that are either closed or open. The animal is placed in the center of an elevated 4-arm maze in which 2 arms are open and 2 are enclosed. Mice generally avoid the open arms because of their fear of open space and height. The elevated plus-maze is used to determine the rodent's response to a potentially dangerous environment and anxiety-related behavior is measured by the degree to which the rodent avoids the unenclosed arms of the maze. Increase in the number of times the animal enters the open arm and the amount of time spent in the open arms reflect decreased anxiety and depression.
(§1) Elevated plus maze tests, light/dark chamber tests, forced swim tests (FST) and hot plate tests were performed as described earlier.

[5] = molecular target: T1, DNA-PKcs (Homo sapiens, UniProt P78527); assay: DNA-PKcs activation in MCF7 cells, immunoblot for phosphorylated Ser2056; assay type: cell-based; conditions: data not shown
T1 construct: endogenous in cells; host or cells: MCF7 (ATCC)
Method: MCF7 cells were obtained from the ATCC. MCF7 cells in G0 were treated with varying doses of H2O2 (FIG. 1). The cells were examined while in the G0 phase of their life cycle to mimic the post-mitotic state of cells in vivo. Low passage MCF-7 cells in G0 were exposed to varying concentrations of H2O2 for 60 minutes with or without Euk-134 or ionizing radiation (5 Gy). For Western blot analysis of DNA-PKcs activation and the activation of other signaling pathways in this study, the following antibodies were used: ACC1 (Cell Signaling); p-ACC1 (Upstate); AMP-activated protein kinase (AMPK; Cell Signaling); p-AMPK(T172) (Cell Signaling); DNA-PK (Lab Vision); p53 (Novocastra); p-DNA-PK(S2056) (Abeam); p-p53(S15) (Cell Signaling); γ-H2AX (Upstate); 53BP1 (Novus Biologicals).
Activation of DNA-PKcs was visualized by immunoblotting cell lysates with antibody specific for phosphorylated Ser2056, which is autophosphorylated during DNA-PKcs activation (Chen et al., J. Biol. Chem. 280: 14709-15 (2005)) (FIG. 1). […] Instead, H2O2 increased DNA-PKcs activation, and such activation was abrogated by the antioxidant Euk-134 (FIG. 1), a potent synthetic superoxide dismutase and catalase mimetic (Chatterjee, Am. J. Nephrol. 24: 165-77 (2004)).
MCF7 cells were then cultured in 25 mM glucose. Aliquots of the cultured MCF7 cells were treated with ionizing radiation and/or the DNA-PKcs-specific inhibitor NU7026. Treatment with glucose and ionizing radiation increased DNA-PKcs phosphorylation (data not shown). […] The basal activity of DNA-PKcs in MCF-7 cells in 25 mM glucose was detectable even in the absence of ionizing radiation, but this basal activity was suppressed with the DNA-PKcs-specific inhibitor NU7026 (data not shown).

[6] = tested on: MCF7 cells; assay: ATP level in MCF7 cells; assay type: cell-based; conditions: 1 and 2.5 μM, FIG. 20
Method: The level of ATP and the ADP/ATP ratio in cells were determined using an
ENLITEN ATP assay kit (Promega) and ApoGlow assay kit (Cambrex), respectively. […] To determine whether the AMPK-inhibitory function of DNA-PKcs is cell autonomous, quiescent MCF7 cells were treated with 1 and 2.5 μM NU7026.

[7] = Hot plate test, latency for pain reaction; assay type: in vivo, mice; conditions: FIG. 48E
Method: Epidemiological studies indicate that people with mood disorders are twice as likely to have chronic pain compared to people without mood disorders (Ohayon et al., Arch. Gen. Psychiatry 60: 39-47 (2003)). Although it is possible that pain contributes to the depressed mood, it is also possible that perception of pain is increased in people with mood disorders. To determine whether SCID mice have altered pain tolerance, the latency for pain reaction to a hot plate was measured. […] (FIG. 30) and at 55° C.
Because tolerance to pain (Example 26) is also linked to the serotonergic pathways, measurements of the latency to pain reaction on hot plate after saline, serotonin reuptake inhibitor fluoxetine (Prozac) or serotonin antagonist GR38032F (Zofran) injection were made.
as §1

[8] = tested on: PI3K; conditions: related kinase, selectivity; cited from earlier work

In the case of `O=c1cc(N2CCOCC2)oc2c1ccc1ccccc12` [NU7026, 2-(morpholin-4-yl)-benzo[h]chomen-4-one], the AMPK activation ([1]; DNA-PK−/− MEFs, FIG. 52A) is reported as “significantly enhanced”, the AMPK activation ([1]; LKB1-null MEFs, FIG. 52B) is reported as “not in LKB1-null MEFs” and the AMPK activation ([1]; wild-type MEFs, FIG. 52) is reported as “activated”. The “Reactive oxygen species production” value [2] was “significantly decreased”, the IC50 [3] was greater than 100 µM and the levels of anxiety/depression ([4]; elevated plus maze and light/dark chamber tests, FIGS. 47 and 48) was “dramatically lower levels of anxiety/depression”. The “time in closed arm of the elevated plus maze” value ([4]; treated vs untreated mice) was “less time in a closed arm”, the “time in open arm of the elevated plus maze” value ([4]; treated vs untreated mice) was “more time in the open arm” and the “induction of DNA-PKcs activation by ionizing radiation” value ([5]; MCF7 cells in 25 mM glucose) was “able to depress the induction of DNA-PKcs activation”. The “basal activity of DNA-PKcs” value ([5]; MCF-7 cells in 25 mM glucose, no ionizing radiation) was “suppressed”, the ATP levels [6] was “without significantly affecting ATP levels” and the “time remaining on a hot surface” value [7] was “remain on a hot surface for longer periods of time”. The pain sensation ([7]; hot plate) was “decreased pain sensation” and the IC50 [8] was 13 µM.
